Experimental data reported in ChEMBL document CHEMBL5126592, “Design, synthesis and activity against drug-resistant bacteria evaluation of C-20, C-23 modified 5-O-mycaminosyltylonolide derivatives” (Eur J Med Chem, 2022).
Values after ≈ are worked out from the molar mass of the structure shown.

How the values were obtained:
Format in all cases: functional
Conditions in all cases: time 16-20 hrs
Escherichia coli = assay: Antibacterial activity against Escherichia coli ATCC 25922 incubated for 16 to 20 hrs by broth microdilution method
Staphylococcus aureus = assay: Antibacterial activity against Staphylococcus aureus ATCC 25923 incubated for 16 to 20 hrs by broth microdilution method
Cronobacter sakazakii = assay: Antibacterial activity against Cronobacter sakazakii ATCC 29544 incubated for 16 to 20 hrs by broth microdilution method
Klebsiella pneumoniae = assay: Antibacterial activity against Klebsiella pneumoniae ATCC 13883 incubated for 16 to 20 hrs by broth microdilution method

| Structure (SMILES) | MIC (Escherichia coli) | MIC (Staphylococcus aureus) | MIC (Cronobacter sakazakii) | MIC (Klebsiella pneumoniae) |
| --- | --- | --- | --- | --- |
| CC[C@H]1OC(=O)C[C@@H](O)[C@H](C)[C@@H](O[C@@H]2O[C@H](C)[C@@H](O)[C@H](N(C)C)[C@H]2O)[C@@H](CCN(Cc2ccccc2)Cc2cn(-c3cnc4ccccc4c3)nn2)C[C@@H](C)C(=O)/C=C/C(C)=C/[C@@H]1CN1CCC(O)CC1 | 16 µg/mL (≈ 16.3 µM) | 2 µg/mL (≈ 2.04 µM) | 16 µg/mL (≈ 16.3 µM) | 16 µg/mL (≈ 16.3 µM) |
| CC[C@H]1OC(=O)C[C@@H](O)[C@H](C)[C@@H](O[C@@H]2O[C@H](C)[C@@H](O)[C@H](N(C)C)[C@H]2O)[C@@H](CCN(Cc2ccc(C(F)(F)F)cc2)Cc2cn(-c3cnc4ccccc4c3)nn2)C[C@@H](C)C(=O)/C=C/C(C)=C/[C@@H]1CN1CCCCCCC1 | 4 µg/mL (≈ 3.77 µM) | 1 µg/mL (≈ 0.943 µM) | 32 µg/mL (≈ 30.2 µM) | 8 µg/mL (≈ 7.54 µM) |
| CC[C@H]1OC(=O)C[C@@H](O)[C@H](C)[C@@H](O[C@@H]2O[C@H](C)[C@@H](O)[C@H](N(C)C)[C@H]2O)[C@@H](CCN(Cc2cn(-c3cnc4ccccc4c3)nn2)Cc2nccs2)C[C@@H](C)C(=O)/C=C/C(C)=C/[C@@H]1CO | 32 µg/mL (≈ 35.4 µM) | 0.5 µg/mL (≈ 0.553 µM) | 32 µg/mL (≈ 35.4 µM) | 32 µg/mL (≈ 35.4 µM) |
| CC[C@H]1OC(=O)C[C@@H](O)[C@H](C)[C@@H](O[C@@H]2O[C@H](C)[C@@H](O)[C@H](N(C)C)[C@H]2O)[C@@H](CCN(Cc2ccc(OC)cc2)Cc2cn(-c3cnc4ccccc4c3)nn2)C[C@@H](C)C(=O)/C=C/C(C)=C/[C@@H]1CO | 8 µg/mL (≈ 8.63 µM) | 0.25 µg/mL (≈ 0.27 µM) | 32 µg/mL (≈ 34.5 µM) | 16 µg/mL (≈ 17.3 µM) |
| CC[C@H]1OC(=O)C[C@@H](O)[C@H](C)[C@@H](O[C@@H]2O[C@H](C)[C@@H](O)[C@H](N(C)C)[C@H]2O)[C@@H](CCN(Cc2cn(-c3cnc4ccccc4c3)nn2)Cc2cncs2)C[C@@H](C)C(=O)/C=C/C(C)=C/[C@@H]1CO | 32 µg/mL (≈ 35.4 µM) | 0.5 µg/mL (≈ 0.553 µM) | 32 µg/mL (≈ 35.4 µM) | 32 µg/mL (≈ 35.4 µM) |
| CC[C@H]1OC(=O)C[C@@H](O)[C@H](C)[C@@H](O[C@@H]2O[C@H](C)[C@@H](O)[C@H](N(C)C)[C@H]2O)[C@@H](CCN(Cc2ccc(N(C)C)cc2)Cc2cn(-c3cnc4ccccc4c3)nn2)C[C@@H](C)C(=O)/C=C/C(C)=C/[C@@H]1CN1CCCCCCC1 | 8 µg/mL (≈ 7.73 µM) | 0.5 µg/mL (≈ 0.483 µM) | 32 µg/mL (≈ 30.9 µM) | 16 µg/mL (≈ 15.5 µM) |

More lines, in order of falling MIC (Escherichia coli), values ahead:

| MIC (Escherichia coli) | MIC (Staphylococcus aureus) | MIC (Cronobacter sakazakii) | MIC (Klebsiella pneumoniae) | Structure (SMILES) |
| --- | --- | --- | --- | --- |
| 32 µg/mL (≈ 35.6 µM) | 0.5 µg/mL (≈ 0.557 µM) | 32 µg/mL (≈ 35.6 µM) | 32 µg/mL (≈ 35.6 µM) | CC[C@H]1OC(=O)C[C@@H](O)[C@H](C)[C@@H](O[C@@H]2O[C@H](C)[C@@H](O)[C@H](N(C)C)[C@H]2O)[C@@H](CCN(Cc2cccnc2)Cc2cn(-c3cnc4ccccc4c3)nn2)C[C@@H](C)C(=O)/C=C/C(C)=C/[C@@H]1CO |
| 32 µg/mL (≈ 29.8 µM) | 4 µg/mL (≈ 3.72 µM) | 32 µg/mL (≈ 29.8 µM) | 32 µg/mL (≈ 29.8 µM) | CC[C@H]1OC(=O)C[C@@H](O)[C@H](C)[C@@H](O[C@@H]2O[C@H](C)[C@@H](O)[C@H](N(C)C)[C@H]2O)[C@@H](CCN(Cc2ccc(C(F)(F)F)cc2)Cc2cn(-c3cnc4ccccc4c3)nn2)C[C@@H](C)C(=O)/C=C/C(C)=C/[C@@H]1CI |
| 32 µg/mL (≈ 34.6 µM) | 0.5 µg/mL (≈ 0.54 µM) | 16 µg/mL (≈ 17.3 µM) | 16 µg/mL (≈ 17.3 µM) | CCc1ccc(CN(CC[C@H]2C[C@@H](C)C(=O)/C=C/C(C)=C/[C@H](CO)[C@@H](CC)OC(=O)C[C@@H](O)[C@H](C)[C@H]2O[C@@H]2O[C@H](C)[C@@H](O)[C@H](N(C)C)[C@H]2O)Cc2cn(-c3cnc4ccccc4c3)nn2)cc1 |
| 16 µg/mL (≈ 17 µM) | 0.5 µg/mL (≈ 0.532 µM) | 32 µg/mL (≈ 34.1 µM) | 32 µg/mL (≈ 34.1 µM) | CC[C@H]1OC(=O)C[C@@H](O)[C@H](C)[C@@H](O[C@@H]2O[C@H](C)[C@@H](O)[C@H](N(C)C)[C@H]2O)[C@@H](CCN(Cc2ccc(C(C)C)cc2)Cc2cn(-c3cnc4ccccc4c3)nn2)C[C@@H](C)C(=O)/C=C/C(C)=C/[C@@H]1CO |
| 16 µg/mL (≈ 16.1 µM) | 4 µg/mL (≈ 4.03 µM) | 16 µg/mL (≈ 16.1 µM) | 16 µg/mL (≈ 16.1 µM) | CC[C@H]1OC(=O)C[C@@H](O)[C@H](C)[C@@H](O[C@@H]2O[C@H](C)[C@@H](O)[C@H](N(C)C)[C@H]2O)[C@@H](CCN(Cc2ccccc2)Cc2cn(-c3cnc4ccccc4c3)nn2)C[C@@H](C)C(=O)/C=C/C(C)=C/[C@@H]1CN1CC(C)CC(C)C1 (stereo partly specified) |
| 8 µg/mL (≈ 8.06 µM) | 1 µg/mL (≈ 1.01 µM) | 16 µg/mL (≈ 16.1 µM) | 8 µg/mL (≈ 8.06 µM) | CC[C@H]1OC(=O)C[C@@H](O)[C@H](C)[C@@H](O[C@@H]2O[C@H](C)[C@@H](O)[C@H](N(C)C)[C@H]2O)[C@@H](CCN(Cc2ccccc2)Cc2cn(-c3cnc4ccccc4c3)nn2)C[C@@H](C)C(=O)/C=C/C(C)=C/[C@@H]1CN1CCCCCCC1 |
| 8 µg/mL (≈ 9.28 µM) | 1 µg/mL (≈ 1.16 µM) | 8 µg/mL (≈ 9.28 µM) | 8 µg/mL (≈ 9.28 µM) | CC[C@H]1OC(=O)C[C@@H](O)[C@H](C)[C@@H](O[C@@H]2O[C@H](C)[C@@H](O)[C@H](N(C)C)[C@H]2O)[C@@H](CCN(C)Cc2cn(-c3cnc4ccccc4c3)nn2)C[C@@H](C)C(=O)/C=C/C(C)=C/[C@@H]1CN(C)CC |
| 8 µg/mL (≈ 8.3 µM) | 1 µg/mL (≈ 1.04 µM) | 8 µg/mL (≈ 8.3 µM) | 8 µg/mL (≈ 8.3 µM) | CC[C@H]1OC(=O)C[C@@H](O)[C@H](C)[C@@H](O[C@@H]2O[C@H](C)[C@@H](O)[C@H](N(C)C)[C@H]2O)[C@@H](CCN(Cc2ccccc2)Cc2cn(-c3cnc4ccccc4c3)nn2)C[C@@H](C)C(=O)/C=C/C(C)=C/[C@@H]1CN1CCCCC1 |
